# Assay results: US8242087B2, “Phosphate modified nucleosides useful as substrates for polymerases and as antiviral agents” (priority 2007, dated 2012)
# Legend:
# [1] = target: T1, HIV reverse transcriptase (HIV RT) (Human immunodeficiency virus type 1 group M subtype B, UniProt P03366); assay: Single nucleotide incorporation by HIV RT, gel-based, P1/T1 (Examples 2-3); assay type: biochemical, HIV-1
# T1 construct: HIV RT polymerase was purchased from GE Healthcare; purchased GE Healthcare (Amersham Bioscience)
# Protocol: (§1) A typical single nucleotide incorporation and primer extension assays using HIV RT polymerase was carried out similar to one described in the literature. HIV RT polymerase was purchased from GE Healthcare and was supplied as either 12 or 30 U/μL stock solution. The final concentration of HIV RT in a reaction mixture was 0.03-0.003 U/μL. A primer/template duplex mixture was prepared by combining appropriate amounts of a 5′-^33P-labeled primer (P1) and a template in 1:2 molar ratio to provide a 4× solution with 0.5 μM primer concentration. The polymerase reactions were carried out in a 5×RT buffer containing 250 mM TRIS.HCL, 250 mM KCl, 50 mM MgCl2, 2.5 mM spermidine, 50 mM DTT, pH 8.3. For the single nucleotide incorporation assay, a P1/T1 primer-template pair was used whereas the primer extension study was performed with P1/T3 and P1/T5 primer-template pairs.
# Briefly, a mixture containing 5 μL of the 4× primer/DNA duplex solution and 5 μL of 4× polymerase solution was pre-incubated at 37° C. for 2 minutes to ensure formation a DNA polymerase/DNA duplex complex. Simultaneously, 2× solutions of dNTP to provide final concentrations of 100 μM, 200 μM, 500 μM and 1 mM were also pre-incubated at 37° C. for 2 minutes as well. The polymerase reaction in a total volume of 20 μL was initiated by addition of 10 μL of the 2× dNTP solution to the DNA polymerase/DNA duplex mixture. The reactions were run at 37° C. and aliquots (2.5 μL) were removed at specified time points and mixed with 10 μL of a quenching buffer containing 80% formamide, 2 mM EDTA, 1×TBE. Quenched reactions were analyzed by loading 2 μL of a reaction sample onto a 20% denaturing polyacrylamide:gel (19:1 acrylamide:bisacrylamide, 7M urea, 0.4 mm×30 cm×40 cm) made in 1×TBE buffer (90 mM Tris-borate, 2 mM EDTA, pH 8.3). The gel was pre-equilibrated for 2 hours before loading and the reactions were run along with a tracking dye marker containing bromophenol blue (BB) and xylene cyanol (XC) until the BB dye had run ⅔ of the total gel length. For visualization, gels were scanned using a Cyclone Phosphoroimager.
# [2] = target: T2, Therminator DNA polymerase (Thermococcus sp., UniProt Q56366, A485L/D141A/E143A); assay: Primer extension by Therminator DNA polymerase (P1/T3, P1/T5); assay type: biochemical, (9° N-7) Thermococcus sp.
# T2 construct: purchased Westburg (NEB)
# T2 sequence (Q56366 whole entry D141A/E143A/A485L): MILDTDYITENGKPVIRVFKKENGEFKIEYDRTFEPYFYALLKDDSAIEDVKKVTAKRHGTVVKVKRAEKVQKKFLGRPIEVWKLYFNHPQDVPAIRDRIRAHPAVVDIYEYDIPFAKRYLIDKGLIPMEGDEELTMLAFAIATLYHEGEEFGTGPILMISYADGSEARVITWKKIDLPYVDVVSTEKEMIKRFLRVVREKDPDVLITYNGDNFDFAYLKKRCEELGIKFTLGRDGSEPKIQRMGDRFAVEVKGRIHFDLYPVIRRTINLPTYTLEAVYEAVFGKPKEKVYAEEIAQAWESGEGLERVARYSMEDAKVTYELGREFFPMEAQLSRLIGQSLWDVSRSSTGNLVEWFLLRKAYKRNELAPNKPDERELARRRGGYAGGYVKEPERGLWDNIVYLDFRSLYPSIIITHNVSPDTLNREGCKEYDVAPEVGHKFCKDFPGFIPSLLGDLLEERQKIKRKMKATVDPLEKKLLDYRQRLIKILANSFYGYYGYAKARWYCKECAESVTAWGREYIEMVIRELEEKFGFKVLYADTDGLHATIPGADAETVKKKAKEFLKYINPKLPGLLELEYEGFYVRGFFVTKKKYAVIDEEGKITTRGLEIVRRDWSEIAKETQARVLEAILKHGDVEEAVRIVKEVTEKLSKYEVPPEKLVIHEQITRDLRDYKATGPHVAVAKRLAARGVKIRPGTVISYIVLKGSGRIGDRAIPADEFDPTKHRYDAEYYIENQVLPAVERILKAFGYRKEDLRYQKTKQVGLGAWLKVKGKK
# Protocol: (§2) Primer extension study with HIV RT and Therminator DNA polymerase was performed in a fashion similar to the single nucleotide incorporation experiments. Two sets of primer/template complexes were used: P1/T3 and P1/T5.
# (§3) In the case of Therminator DNA polymerase, the enzyme was obtained from Westburg (NEB) (2 U/μL) and the reactions were carried out in a 10× Thermopol reaction buffer containing 20 mM TRIS.HCl, 10 mM KCl, 2 mM MgSO4, 0.1% Triton X-100, pH 8.8. The final concentration of the Therminator DNA pol in the reaction mixture was 8.33×10^−4 U/μL. The polymerase reaction involving Therminator DNA polymerase or any other thermostable polymerase (Vent (exo^−), Taq DNA polymerase) was carried out in a similar way as the HIV RT reaction with some modifications. The dNTP solutions and the primer/template/DNA polymerase mixture solutions were topped with mineral oil (30-60 μL) and pre-incubated at 70° C. for 2 minutes. The polymerase reactions were performed at 70° C. as well.
# [3] = target: T3, HIV reverse transcriptase (Human immunodeficiency virus type 1 group M subtype B, UniProt P03366); assay: Gel-based single-nucleotide-incorporation and control assays with HIV RT (Example 4); assay type: biochemical, HIV-1
# T3 construct: performed for the enzyme HIV reverse transcriptase (GE Healthcare, 30 U/4 stock solution); purchased GE Healthcare
# Protocol: End-labeled primers were annealed to their template by combining primer and templates in a molar ratio of 1:2 and heating the mixture to 70° C. for 10 minutes, followed by slow cooling to room temperature over a period of 2.5 hours. For the incorporation of L-Asp-dGMP (9), L-Asp-dTMP (10), L-Asp-dCMP (11), and N-Me-Asp-dAMP (12) (see FIG. 13), the primer P1 was annealed to templates T1, T2, T4 or A and P2 was annealed to T4. A series of 20 μL reactions was performed for the enzyme HIV reverse transcriptase (GE Healthcare, 30 U/4 stock solution). The final mixture contained 125 nM primer-template complex, RT buffer (250 mM TrisHCl, 250 mM KCl, 50 mM MgCl2, 2.5 mM spermidine, 50 mM DTT, pH 8.3), 0.03 U/μL HIV RT and different amino acid phosphoramidates building blocks concentrations. In the control reaction with the natural nucleotide, 10 μM or 50 μM dGTP, dTTP, dATP or dCTP were used. The mixture was incubated at 37° C. […] and aliquots were quenched after 5, 10, 20, 30, 60 and 120 minutes respectively.
# All polymerase reactions (3 μL) were quenched by the addition of 10 μL of loading buffer (90% formamide, 0.05% bromophenol blue, 0.05% xylene cyanol and 50 mM EDTA). Samples were heated at 70° C. for 5 minutes prior to analysis by electrophoresis for 2-3 hours at 2000 V on a 0.4 mm 20% denaturing gel in the presence of a 100 mM Tris-borate, 2.5 mM EDTA buffer, pH 8.3. Products were visualized by phosphor imaging. The amount of radioactivity in the bands corresponding to the products of enzymatic reactions was determined by using the Optiquant image analysis software (Perkin Elmer).
# HIV RT = target: T4, HIV RT (Human immunodeficiency virus type 1 group M subtype B, UniProt P03366); assay: Primer extension by HIV RT (P1/T3, P1/T5); assay type: biochemical, HIV-1; settings: T3 template
# T4 construct: HIV RT polymerase was purchased from GE Healthcare; purchased GE Healthcare (Amersham Bioscience)
# Protocol: as §1, §2
# [4] = target: Vent (exo−) DNA polymerase (Thermococcus litoralis, UniProt P30317, D141A/DEL1082-1471/DEL495-1032/E143A); assay: Single nucleotide incorporation by Vent (exo−) DNA polymerase; assay type: biochemical
# Vent (exo−) DNA polymerase, sequence (P30317 other isoform, or with tags, fused parts or gaps D141A/E143A/DEL495-1032/DEL1082-1471): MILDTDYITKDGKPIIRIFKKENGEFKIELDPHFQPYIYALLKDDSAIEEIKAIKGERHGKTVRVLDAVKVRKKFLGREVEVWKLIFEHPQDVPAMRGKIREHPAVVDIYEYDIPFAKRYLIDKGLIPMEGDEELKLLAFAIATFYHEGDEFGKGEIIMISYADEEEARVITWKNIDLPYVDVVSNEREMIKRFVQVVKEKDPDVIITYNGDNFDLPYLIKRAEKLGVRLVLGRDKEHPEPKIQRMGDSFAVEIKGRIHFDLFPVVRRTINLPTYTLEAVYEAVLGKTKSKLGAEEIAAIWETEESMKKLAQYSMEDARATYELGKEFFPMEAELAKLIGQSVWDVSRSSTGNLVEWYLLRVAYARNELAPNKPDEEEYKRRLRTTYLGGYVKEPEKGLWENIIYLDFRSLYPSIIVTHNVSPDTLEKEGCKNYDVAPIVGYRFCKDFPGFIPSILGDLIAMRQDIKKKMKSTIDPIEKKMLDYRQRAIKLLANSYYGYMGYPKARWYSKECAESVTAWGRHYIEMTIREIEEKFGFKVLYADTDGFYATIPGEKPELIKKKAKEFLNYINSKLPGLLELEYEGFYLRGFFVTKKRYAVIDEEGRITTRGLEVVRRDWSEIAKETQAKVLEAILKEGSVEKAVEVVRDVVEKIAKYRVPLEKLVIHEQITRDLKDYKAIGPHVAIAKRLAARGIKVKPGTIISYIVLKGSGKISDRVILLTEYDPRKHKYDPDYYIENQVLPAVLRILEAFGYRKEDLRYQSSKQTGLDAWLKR
# Protocol: Reaction conditions: Primer (P1) was 5′-labeled with ^33P followed by annealing to a template T1; 125 nM primer/template (P1/T1), [Taq]=0.005 U/μL, [Vent]=0.005 U/μL, [KF]=0.05 U/μL; time intervals: 5, 15, 30, 60, 90 and 120 minutes.
# as §3
# [5] = target: T2, Therminator DNA polymerase; assay: Single nucleotide incorporation by Therminator DNA polymerase; assay type: biochemical, (9° N-7) Thermococcus sp.
# Protocol: as §3
substance,measurement,setting,value
2′-deoxy-adenosine-5′-aspartyl-phosphoramidate [Compound 1],conversion to a n+1 strand,"[1]; 500 μM nucleotide concentration, 60 min, P1/T1",90%
same,incorporation,[1]; substrate concentration decreased 10 fold (from 500 μM),24.1%
same,primer extension,[2]; T3 template,successfully incorporated
same,number of adenine residues incorporated,"[2]; T5 template, overhang of seven thymidine residues",up to five adenine residues
same,base-pairing selectivity of incorporation,[3]; P1/T1,inserted selectively against thymine
same,incorporation with blunt ended duplex,"[3]; primer P1, template A",none of these compounds incorporated at all
same,primer extension product,HIV RT,extend a primer with three adenine nucleobases (n+3 product)
same,(n+3) product,"HIV RT; 60 minutes, 500 μM substrate",5.2%
same,n+2 product,"HIV RT; 60 minutes, 500 μM substrate",56.3%
same,insertion into a growing primer strand,[4],failed to insert
same,primer extension,"[5]; 60 min, 500 μM nucleoside concentration",25.2%
same,incorporation as Therminator DNA polymerase substrate,"[5]; single nucleotide incorporation, P1/T1",act effectively as alternative substrates
